pIC50: −log10 of the molar value.
target: human PDGFRβ (Homo sapiens (Human), UniProt P09619); experiment: PDGFRβ kinase assay (PDGFRβ-HTRF); format: biochemical; details: 10 μM ATP; some mean values from multiple determinations
Experimental: The PDGFRβ-inhibitory activity of the inventive compounds was determined in the PDGFRβ-HTRF assay described hereinafter.
The kinase used was a recombinant fusion protein composed of N-terminal GST and a C-terminal fragment of human PDGFRβ (amino acids R561-L1106), expressed in baculovirus-infected insect cells (Sf9) and purified by affinity chromatography (from ProQinase GmbH, Freiburg, Germany). The substrate used for the kinase reaction was biotinylated poly-Glu,Tyr (4:1) copolymer (from Cisbio Bioassays, Codolet, France).
For the assay, 50 nl of a 100-fold concentrated solution of the test substance in DMSO was pipetted into a black “low-volume 384 well” microtitre plate (from Greiner Bio-One, Frickenhausen, Germany), then 2 μl of a solution of PDGFRβ in assay buffer [50 mM HEPES/NaOH pH 7.5, 10 mM MgCl2, 2.5 mM dithiothreitol, 0.01% (v/v) Triton-X100 (from Sigma)] was added and the mixture was incubated for 15 min, in order to enable preliminary binding of the substance to the enzyme before the kinase reaction. […] The resulting mixture was incubated at 22° C. for 1 h to allow formation of a complex of the biotinylated phosphorylated substrate and the detection reagents.
Subsequently, the amount of the phosphorylated substrate was evaluated by measuring the resonance energy transfer from the PT66-Eu chelate to the streptavidin-XL665. […] The IC50 values were calculated by a 4-parameter fit.

human PDGFRβ, sequence (P09619 561-1106): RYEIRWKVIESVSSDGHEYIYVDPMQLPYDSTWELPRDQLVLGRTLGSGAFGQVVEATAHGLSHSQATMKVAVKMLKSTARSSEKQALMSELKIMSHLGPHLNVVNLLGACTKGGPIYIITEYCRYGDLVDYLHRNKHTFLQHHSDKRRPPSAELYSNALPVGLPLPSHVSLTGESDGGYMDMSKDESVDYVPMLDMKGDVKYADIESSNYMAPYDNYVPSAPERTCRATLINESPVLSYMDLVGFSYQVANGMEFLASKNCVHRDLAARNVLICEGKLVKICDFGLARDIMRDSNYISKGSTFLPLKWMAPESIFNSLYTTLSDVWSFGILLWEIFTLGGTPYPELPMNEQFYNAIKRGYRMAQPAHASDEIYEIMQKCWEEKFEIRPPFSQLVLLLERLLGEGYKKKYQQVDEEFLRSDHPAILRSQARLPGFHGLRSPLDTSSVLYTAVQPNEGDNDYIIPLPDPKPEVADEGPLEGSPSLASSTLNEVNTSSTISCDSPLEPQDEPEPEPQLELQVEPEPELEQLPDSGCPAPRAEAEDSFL

With Cc1cc(F)c(Nc2ccnc3c2C(=O)Nc2cc(CN4CCCC(C(N)=O)C4)ccc2N3)cc1O (racemic) [Example 57, rac-1-({4-[(2-Fluoro-5-hydroxy-4-methylphenyl)amino]-5-oxo-6,11-dihydro-5H-pyrido[2,3-b][1,5]benzodiazepin-8-yl}methyl)piperidine-3-carboxamide] as the compound, how does the pIC50 read?
The pIC50 was 8.78.

How did the pIC50 turn out when Cc1cc(F)c(Nc2ccnc3c2C(=O)Nc2cc(CN4CCCC(O)CC4)ccc2N3)cc1O (racemic) [Example 62, rac-4-[(2-Fluoro-5-hydroxy-4-methylphenyl)amino]-8-[(4-hydroxyazepan-1-yl)methyl]-6,11-dihydro-5H-pyrido[2,3-b][1,5]benzodiazepin-5-one] was run?
Its pIC50 is 8.86.

How did the pIC50 turn out when COC1CCCN(Cc2ccc3c(c2)NC(=O)c2c(Nc4cc(O)c(C)cc4F)ccnc2N3)C1 (racemic) [Example 66, rac-4-[(2-Fluoro-5-hydroxy-4-methylphenyl)amino]-8-[(3-methoxypiperidin-1-yl)methyl]-6,11-dihydro-5H-pyrido[2,3-b][1,5]benzodiazepin-5-one] was run?
The pIC50 was 8.43.

CCOC1CCCN(Cc2ccc3c(c2)NC(=O)c2c(Nc4cc(O)c(C)cc4F)ccnc2N3)C1 (racemic) [Example 67, rac-8-[(3-Ethoxypiperidin-1-yl)methyl]-4-[(2-fluoro-5-hydroxy-4-methylphenyl)amino]-6,11-dihydro-5H-pyrido[2,3-b][1,5]benzodiazepin-5-one] was tested. Which pIC50 did it give?
The pIC50 was 8.65.

With CCCOC1CCCN(Cc2ccc3c(c2)NC(=O)c2c(Nc4cc(O)c(C)cc4F)ccnc2N3)C1 (racemic) [Example 68, rac-4-[(2-Fluoro-5-hydroxy-4-methylphenyl)amino]-8-[(3-propoxypiperidin-1-yl)methyl]-6,11-dihydro-5H-pyrido[2,3-b][1,5]benzodiazepin-5-one] as the compound, how does the pIC50 read?
Its pIC50 is 8.73.

With Cc1cc(F)c(Nc2ccnc3c2C(=O)Nc2cc(CN4CCCC(O)(c5ccccc5)C4)ccc2N3)cc1O (racemic) [Example 73, rac-4-[(2-Fluoro-5-hydroxy-4-methylphenyl)amino]-8-[(3-hydroxy-3-phenylpiperidin-1-yl)methyl]-6,11-dihydro-5H-pyrido[2,3-b][1,5]benzodiazepin-5-one] as the compound, how does the pIC50 read?
The pIC50 was 8.70.

Cc1cc(F)c(Nc2ccnc3c2C(=O)Nc2cc(CNC(C)C4CCCCC4)ccc2N3)cc1O (racemic) [Example 77, rac-8-{[(1-Cyclohexylethyl)amino]methyl}-4-[(2-fluoro-5-hydroxy-4-methylphenyl)amino]-6,11-dihydro-5H-pyrido[2,3-b][1,5]benzodiazepin-5-one] was tested. Which pIC50 did it give?
Its pIC50 is 8.31.

How did the pIC50 turn out when Cc1cc(F)c(Nc2ccnc3c2C(=O)Nc2cc(C(=O)N4CCCC(O)C4)ccc2N3)cc1O (racemic) [Example 82, rac-4-[(2-Fluoro-5-hydroxy-4-methylphenyl)amino]-8-[(3-hydroxypiperidin-1-yl)carbonyl]-6, 11-dihydro-5H-pyrido[2,3-b][1,5]benzodiazepin-5-one] was run?
The pIC50 was 8.00.

How did the pIC50 turn out when Cc1cc(F)c(Nc2ccnc3c2C(=O)Nc2cc(CN4CCCC(OCC(F)(F)F)C4)ccc2N3)cc1O (racemic) [Example 89, rac-4-[(2-Fluoro-5-hydroxy-4-methylphenyl)amino]-8-{[3-(2,2,2-trifluoroethoxy)piperidin-1-yl]methyl}-6,11-dihydro-5H-pyrido[2,3-b][1,5]benzodiazepin-5-one] was run?
Its pIC50 is 8.45.

With Cc1cc(F)c(Nc2ccnc3c2C(=O)Nc2cc(CN4CCC(O)C(C)(C)C4)ccc2N3)cc1O (racemic) [Example 166, rac-4-[(2-Fluoro-5-hydroxy-4-methylphenyl)amino]-8-[(4-hydroxy-3,3-dimethylpiperidin-1-yl)methyl]-6,11-dihydro-5H-pyrido[2,3-b][1,5]benzodiazepin-5-one] as the compound, how does the pIC50 read?
The pIC50 was 8.30.

With Cc1cc(F)c(Nc2ccnc3c2C(=O)Nc2cc(CN4CCC(CO)C4)ccc2N3)cc1O (racemic) [Example 177, rac-4-[(2-Fluoro-5-hydroxy-4-methylphenyl)amino]-8-{[3-(hydroxymethyl)pyrrolidin-1-yl]methyl}-6,11-dihydro-5H-pyrido[2,3-b][1,5]benzodiazepin-5-one] as the compound, how does the pIC50 read?
Its pIC50 is 8.77.

Reference: patent US10047096B2, “Substituted pyridobenzodiazepinone-derivatives and use thereof” (Bayer Pharma Aktiengesellschaft, priority 2014, dated 2018)
